{"source": "patent US8299111B2", "about": "“Compounds which modulate the CB2 receptor” (Boehringer Ingelheim International GmbH, priority 2006, dated 2012)", "data": [{"biological_target": "T1, human CB2R (Homo sapiens, UniProt P34972)", "T1 construct": "host or cells: CHO cells", "T1 sequence (P34972 whole entry)": "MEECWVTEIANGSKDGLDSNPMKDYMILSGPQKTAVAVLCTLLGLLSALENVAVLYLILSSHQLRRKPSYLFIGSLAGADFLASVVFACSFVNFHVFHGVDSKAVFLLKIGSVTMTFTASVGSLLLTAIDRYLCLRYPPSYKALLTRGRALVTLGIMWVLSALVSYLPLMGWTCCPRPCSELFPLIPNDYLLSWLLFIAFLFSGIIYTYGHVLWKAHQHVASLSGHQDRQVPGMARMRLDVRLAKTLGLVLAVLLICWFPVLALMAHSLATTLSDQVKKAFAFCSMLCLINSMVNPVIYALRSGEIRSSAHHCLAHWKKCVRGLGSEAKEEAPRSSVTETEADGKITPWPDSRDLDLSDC", "assay": "CB2R mediated modulation of cAMP synthesis", "assay_type": "cell-based", "settings": "found through the use of the above described assays (binding and cAMP); CHO cells expressing human CB2R, forskolin-stimulated cAMP", "procedure,_shortened": "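CHO cells expressing human CB2R were treated for 30 min at 37 °C with compound in buffer containing 1 mM IBMX, 0.25% BSA and 10 uM forskolin. cAMP was measured after lysis. EC50 is the concentration giving 50% inhibition of forskolin-stimulated cAMP, scaled to the level set by 1 uM CP55940, fitted by four-parameter logistic.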", "values": [{"smiles": "CC(C)(C(=O)Nc1cccc(C(F)(F)F)n1)S(=O)(=O)c1ccccc1", "note": "[2-Benzenesulfonyl-2-methyl-N-(6-trifluoromethyl-pyridin-2-yl)-propionamide]", "agonistic activity": "agonistic activity"}, {"smiles": "CC(C)(C)c1csc(NC(=O)C(C)(C)S(=O)(=O)c2ccccc2)n1", "note": "[2-Benzenesulfonyl-N-(4-tert-butyl-thiazol-2-yl)-2-methyl-propionamide]", "agonistic activity": "agonistic activity"}, {"smiles": "CCc1sc(NC(=O)C(C)(C)S(=O)(=O)c2ccccc2)nc1-c1ccccc1", "note": "[2-Benzenesulfonyl-N-(5-ethyl-4-phenyl-thiazol-2-yl)-2-methyl-propionamide]", "agonistic activity": "agonistic activity"}, {"smiles": "Cn1nc(C(C)(C)C)cc1NC(=O)C(C)(C)S(=O)(=O)c1ccccc1", "note": "[2-Benzenesulfonyl-N-(5-tert-butyl-2-methyl-2H-pyrazol-3-yl)-2-methyl-propionamide]", "agonistic activity": "agonistic activity"}, {"smiles": "Cc1nc(NC(=O)C(C)(C)S(=O)(=O)c2ccccc2)sc1C(C)(C)C", "note": "[2-Benzenesulfonyl-N-(5-tert-butyl-4-methyl-thiazol-2-yl)-2-methyl-propionamide]", "agonistic activity": "agonistic activity"}, {"smiles": "CC(C)(C)c1cc(NC(=O)C(C)(C)S(=O)(=O)c2ccccc2)no1", "note": "[2-Benzenesulfonyl-N-(5-tert-butyl-isoxazol-3-yl)-2-methyl-propionamide]", "agonistic activity": "agonistic activity"}, {"smiles": "CC(C)(C(=O)Nc1nc(-c2ccc(Cl)cc2)cs1)S(=O)(=O)c1ccccc1", "note": "[2-Benzenesulfonyl-N-[4-(4-chloro-phenyl)-thiazol-2-yl]-2-methyl-propionamide]", "agonistic activity": "agonistic activity"}, {"smiles": "CC(C)(C(=O)Nc1ccc(C(F)(F)F)cn1)S(=O)(=O)c1ccc(C(F)(F)F)cc1", "note": "[2-Methyl-2-(4-trifluoromethyl-benzenesulfonyl)-N-(5-trifluoromethyl-pyridin-2-yl)-propionamide]", "agonistic activity": "agonistic activity"}, {"smiles": "Cc1ccc(S(=O)(=O)C(C)(C)C(=O)Nc2ccc(C(F)(F)F)cn2)cn1", "note": "[2-Methyl-2-(6-methyl-pyridine-3-sulfonyl)-N-(5-trifluoromethyl-pyridin-2-yl)-propionamide]", "agonistic activity": "agonistic activity"}, {"smiles": "Cc1ccc(S(=O)(=O)C(C)(C)C(=O)Nc2cccc(C(F)(F)F)n2)cn1", "note": "[2-Methyl-2-(6-methyl-pyridine-3-sulfonyl)-N-(6-trifluoromethyl-pyridin-2-yl)-propionamide]", "agonistic activity": "agonistic activity"}, {"smiles": "CC(C)(C(=O)Nc1ccc(C(F)(F)F)cn1)S(=O)(=O)c1ccc(N2CCOCC2)nc1", "note": "[2-Methyl-2-(6-morpholin-4-yl-pyridine-3-sulfonyl)-N-(5-trifluoromethyl-pyridin-2-yl)-propionamide]", "agonistic activity": "agonistic activity"}, {"smiles": "CC(C)(C(=O)Nc1cc(C(F)(F)F)ccn1)S(=O)(=O)c1ccc(C(F)(F)F)nc1", "note": "[2-Methyl-2-(6-trifluoromethyl-pyridine-3-sulfonyl)-N-(4-trifluoromethyl-pyridin-2-yl)-propionamide]", "agonistic activity": "agonistic activity"}, {"smiles": "CC(C)(C(=O)Nc1ccc(C(F)(F)F)cn1)S(=O)(=O)c1ccc(C(F)(F)F)nc1", "note": "[2-Methyl-2-(6-trifluoromethyl-pyridine-3-sulfonyl)-N-(5-trifluoromethyl-pyridin-2-yl)-propionamide]", "agonistic activity": "agonistic activity"}, {"smiles": "Cc1ccc(S(=O)(=O)C(C)(C)C(=O)Nc2nc(C(F)(F)F)cs2)cc1", "note": "[2-Methyl-2-(toluene-4-sulfonyl)-N-(4-trifluoromethyl-thiazol-2-yl)-propionamide]", "agonistic activity": "agonistic activity"}, {"smiles": "Cc1ccc(S(=O)(=O)C(C)(C)C(=O)Nc2ccc(C(F)(F)F)cn2)cc1", "note": "[2-Methyl-2-(toluene-4-sulfonyl)-N-(5-trifluoromethyl-pyridin-2-yl)-propionamide]", "agonistic activity": "agonistic activity"}, {"smiles": "Cc1ccc(S(=O)(=O)C(C)(C)C(=O)Nc2cccc(C(F)(F)F)n2)cc1", "note": "[2-Methyl-2-(toluene-4-sulfonyl)-N-(6-trifluoromethyl-pyridin-2-yl)-propionamide]", "agonistic activity": "agonistic activity"}, {"smiles": "Cn1nc(-c2ccccc2)cc1NC(=O)C(C)(C)S(=O)(=O)c1ccc(C(F)(F)F)nc1", "note": "[2-Methyl-N-(2-methyl-5-phenyl-2H-pyrazol-3-yl)-2-(6-trifluoromethyl-pyridine-3-sulfonyl)-propionamide]", "agonistic activity": "agonistic activity"}, {"smiles": "Cc1ccc(S(=O)(=O)C(C)(C)C(=O)Nc2cc(-c3ccccc3)nn2C)cc1", "note": "[2-Methyl-N-(2-methyl-5-phenyl-2H-pyrazol-3-yl)-2-(toluene-4-sulfonyl)-propionamide]", "agonistic activity": "agonistic activity"}, {"smiles": "Cc1cnc(NC(=O)C(C)(C)S(=O)(=O)c2ccc(C(F)(F)F)cc2)s1", "note": "[2-Methyl-N-(5-methyl-thiazol-2-yl)-2-(4-trifluoromethyl-benzenesulfonyl)-propionamide]", "agonistic activity": "agonistic activity"}, {"smiles": "Cc1cnc(NC(=O)C(C)(C)S(=O)(=O)c2ccc(C(F)(F)F)cn2)s1", "note": "[2-Methyl-N-(5-methyl-thiazol-2-yl)-2-(5-trifluoromethyl-pyridine-2-sulfonyl)-propionamide]", "agonistic activity": "agonistic activity"}, {"smiles": "CC(C)(C(=O)Nc1cccnc1)S(=O)(=O)c1ccc(C(F)(F)F)cc1", "note": "[2-Methyl-N-pyridin-3-yl-2-(4-trifluoromethyl-benzenesulfonyl)-propionamide]", "agonistic activity": "agonistic activity"}, {"smiles": "CCCc1cc(NC(=O)C(C)(C)S(=O)(=O)c2ccc(F)cc2F)on1", "note": "[2-[(2,4-difluorophenyl)sulfonyl]-2-methyl-N-(3-propylisoxazol-5-yl)propanamide]", "agonistic activity": "agonistic activity"}, {"smiles": "CC(C)(C(=O)Nc1cc(C(F)(F)F)ccn1)S(=O)(=O)c1ccc(F)cc1F", "note": "[2-[(2,4-difluorophenyl)sulfonyl]-2-methyl-N-[4-(trifluoromethyl)pyridin-2-yl]propanamide]", "agonistic activity": "agonistic activity"}, {"smiles": "CC(C)(C(=O)Nc1ccc(C(F)(F)F)cn1)S(=O)(=O)c1ccc(F)cc1F", "note": "[2-[(2,4-difluorophenyl)sulfonyl]-2-methyl-N-[5-(trifluoromethyl)pyridin-2-yl]propanamide]", "agonistic activity": "agonistic activity"}, {"smiles": "CC(C)(C(=O)Nc1cccc(C(F)(F)F)n1)S(=O)(=O)c1ccc(F)cc1F", "note": "[2-[(2,4-difluorophenyl)sulfonyl]-2-methyl-N-[6-(trifluoromethyl)pyridin-2-yl]propanamide]", "agonistic activity": "agonistic activity"}, {"smiles": "CCc1sc(NC(=O)C(C)(C)S(=O)(=O)c2ccc(F)cc2F)nc1-c1ccccc1", "note": "[2-[(2,4-difluorophenyl)sulfonyl]-N-(5-ethyl-4-phenyl-1,3-thiazol-2-yl)-2-methylpropanamide]", "agonistic activity": "agonistic activity"}, {"smiles": "CC(C)(C)Cc1cc(NC(=O)C(C)(C)S(=O)(=O)c2ccc(F)cc2F)on1", "note": "[2-[(2,4-difluorophenyl)sulfonyl]-N-[3-(2,2-dimethylpropyl)isoxazol-5-yl]-2-methylpropanamide]", "agonistic activity": "agonistic activity"}, {"smiles": "CC(C)(C(=O)Nc1cccc2ccccc12)S(=O)(=O)c1ccc(Cl)cc1F", "note": "[2-[(4-chloro-2-fluorophenyl)sulfonyl]-2-methyl-N-1-naphthylpropanamide]", "agonistic activity": "agonistic activity"}, {"smiles": "CCCc1cc(NC(=O)C(C)(C)S(=O)(=O)c2ccc(Cl)cc2F)on1", "note": "[2-[(4-chloro-2-fluorophenyl)sulfonyl]-2-methyl-N-(3-propylisoxazol-5-yl)propanamide]", "agonistic activity": "agonistic activity"}]}]}
